The test system of series [1] is Trachea. The experiment in a line: Induction of smooth muscle relaxation in male Dunkin-Hartley guinea pig trachea strips assessed as maximal relaxation of histamine phosphate-induced guinea pig airway smooth muscle contraction relative to control. To be noted: Cavia porcellus.
Series [2] addresses Beta-2 adrenergic receptor (Homo sapiens, UniProt P07550).
Description: Agonist activity at human beta2 adrenoceptor expressed in HEK293 cells assessed as induction of accumulation of cAMP by HTRF assay
Series [3] addresses Beta-1 adrenergic receptor (Homo sapiens, UniProt P08588).
Description: Agonist activity at human beta1 adrenoceptor expressed in HEK293 cells assessed as induction of accumulation of cAMP by HTRF assay
A short description of series [4]: Half life in male Balb/c mouse at 2 mg/kg, iv measured upto 24 hrs by LC-MS/MS analysis. The class given is ADME, organism-based. The conditions noted are these: in vivo.
The nature of series [5]: Half life in male Balb/c mouse at 10 mg/kg, po measured upto 24 hrs by LC-MS/MS analysis. The series is classed as ADME, organism-based. To be noted: in vivo.
A short description of series [6]: Tmax in male Balb/c mouse at 10 mg/kg, po measured upto 24 hrs by LC-MS/MS analysis. The class given is ADME, organism-based. The conditions noted are these: in vivo.
Series [7] can be described thus: Cmax in male Balb/c mouse at 10 mg/kg, po measured upto 24 hrs by LC-MS/MS analysis. The class given is ADME, organism-based. The conditions noted are these: in vivo.
The nature of series [8]: AUC (0 to t) in male Balb/c mouse at 10 mg/kg, po measured upto 24 hrs by LC-MS/MS analysis. The class given is ADME, organism-based. The conditions noted are these: in vivo.
The nature of series [9]: AUC (0 to infinity) in male Balb/c mouse at 10 mg/kg, po measured upto 24 hrs by LC-MS/MS analysis. The class given is ADME, organism-based. To be noted: in vivo.
The nature of series [10]: MRT in male Balb/c mouse at 10 mg/kg, po measured upto 24 hrs by LC-MS/MS analysis. The series is classed as ADME, organism-based. To be noted: in vivo.
Series [11] is described as follows: MRT (0 to infinity) in male Balb/c mouse at 10 mg/kg, po measured upto 24 hrs by LC-MS/MS analysis. The series is classed as ADME, organism-based. To be noted: in vivo.
Series [12] can be described thus: Oral bioavailability in male Balb/c mouse at 10 mg/kg measured upto 24 hrs by LC-MS/MS analysis. The series is classed as ADME, organism-based. The conditions noted are these: in vivo.
The nature of series [13]: Tmax in male Balb/c mouse at 2 mg/kg, iv measured upto 24 hrs by LC-MS/MS analysis. The series is classed as ADME, organism-based. To be noted: in vivo.
Series [14] is described as follows: Cmax in male Balb/c mouse at 2 mg/kg, iv measured upto 24 hrs by LC-MS/MS analysis. The series is classed as ADME, organism-based. To be noted: in vivo.
Series [15] is described as follows: AUC (0 to t) in male Balb/c mouse at 2 mg/kg, iv measured upto 24 hrs by LC-MS/MS analysis. The conditions noted are these: in vivo. The class given is ADME, organism-based.
Series [16] in a line: AUC (0 to infinity) in male Balb/c mouse at 2 mg/kg, iv measured upto 24 hrs by LC-MS/MS analysis. The class given is ADME, organism-based. To be noted: in vivo.
The nature of series [17]: MRT in male Balb/c mouse at 2 mg/kg, iv measured upto 24 hrs by LC-MS/MS analysis. The series is classed as ADME, organism-based. The conditions noted are these: in vivo.
A short description of series [18]: MRT (0 to infinity) in male Balb/c mouse at 2 mg/kg, iv measured upto 24 hrs by LC-MS/MS analysis. The series is classed as ADME, organism-based. To be noted: in vivo.
Series [19] can be described thus: Apparent volume of distribution in male Balb/c mouse at 2 mg/kg, iv measured upto 24 hrs by LC-MS/MS analysis. The series is classed as ADME, organism-based. The conditions noted are these: in vivo, read-out: Vd(app).
Series [20] in a line: Clearance in male Balb/c mouse at 2 mg/kg, iv measured upto 24 hrs by LC-MS/MS analysis. The series is classed as ADME, organism-based. The conditions noted are these: in vivo.

This note sets out measurements from ChEMBL document CHEMBL5528055, “Discovery and Identification of Novel 5-Hydroxy-4H-benzo[1,4]oxazin-3-one Derivatives as Potent β2-Adrenoceptor Agonists through Structure-Based Design, Synthesis, and Biological Evaluation” (J Med Chem, 2024).

Sequence of Beta-2 adrenergic receptor (P07550 whole entry): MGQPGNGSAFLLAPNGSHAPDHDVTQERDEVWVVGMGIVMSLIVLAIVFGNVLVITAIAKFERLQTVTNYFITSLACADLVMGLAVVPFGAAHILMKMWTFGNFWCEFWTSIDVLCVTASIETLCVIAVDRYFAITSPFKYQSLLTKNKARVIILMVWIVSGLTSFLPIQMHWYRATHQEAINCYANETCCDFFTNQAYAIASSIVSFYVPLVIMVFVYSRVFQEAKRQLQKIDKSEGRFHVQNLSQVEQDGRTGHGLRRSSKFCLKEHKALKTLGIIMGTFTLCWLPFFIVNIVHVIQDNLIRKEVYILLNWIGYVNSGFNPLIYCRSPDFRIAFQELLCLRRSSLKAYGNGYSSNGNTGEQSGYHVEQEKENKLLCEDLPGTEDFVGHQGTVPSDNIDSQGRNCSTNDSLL
Sequence of Beta-1 adrenergic receptor (P08588 whole entry): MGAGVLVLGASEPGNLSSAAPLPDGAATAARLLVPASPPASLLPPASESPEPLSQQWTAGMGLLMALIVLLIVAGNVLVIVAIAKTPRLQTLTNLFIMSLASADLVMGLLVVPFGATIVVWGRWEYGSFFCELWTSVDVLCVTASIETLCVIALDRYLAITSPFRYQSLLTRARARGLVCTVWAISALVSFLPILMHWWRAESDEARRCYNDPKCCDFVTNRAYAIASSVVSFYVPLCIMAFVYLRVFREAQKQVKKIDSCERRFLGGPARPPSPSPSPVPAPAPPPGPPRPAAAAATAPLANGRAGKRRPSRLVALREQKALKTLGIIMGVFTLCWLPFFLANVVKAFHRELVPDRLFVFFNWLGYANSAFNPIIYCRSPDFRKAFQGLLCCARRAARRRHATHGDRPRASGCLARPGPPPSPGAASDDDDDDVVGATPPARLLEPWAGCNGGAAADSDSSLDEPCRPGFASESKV

As a reminder, the Emax is the greatest response seen or fitted, relative to the assay's reference. The EC50 is the concentration at which the effect is half-maximal. On to `CCCNCC(O)c1ccc(O)c2c1OCC(=O)N2` (stereo unspecified), for which, in series [1], the Emax was 60.5%. Also, the concentration for a half-maximal effect (EC50) in [2] was 0.0316 nM; in series [3], 14.5 nM.
The like results for `O=C1COc2c(C(O)CNCCCc3ccccc3F)ccc(O)c2N1` (stereo unspecified) were, in that order, 90.5%, 0.00479 nM and 0.17 nM.
With `COc1cccc(CCNCC(O)c2ccc(O)c3c2OCC(=O)N3)c1` (stereo unspecified), a half-maximal effect in [2] (EC50) was put at 0.00871 nM.
Regarding `O=C1COc2c(C(O)CNCCCc3ccc(C(F)(F)F)cc3)ccc(O)c2N1` (stereo unspecified), in series [1], the Emax is 132%. The figures for the concentration giving a half-maximal response (EC50) in [2] and in [3] were 0.0055 nM and 1.2 nM, respectively.
For `O=C1COc2c(C(O)CNCCCc3ccccc3)ccc(O)c2N1` (stereo unspecified), in that order: 237%, 0.00589 nM and 0.257 nM.
With `O=C1COc2c(C(O)CNCCCc3cccc(F)c3)ccc(O)c2N1` (stereo unspecified), the Emax in series [1] came to 126%. The concentration for a half-maximal effect (EC50) in series [2] was 0.00468 nM.
In the case of `COc1cccc(CCCNCC(O)c2ccc(O)c3c2OCC(=O)N3)c1` (stereo unspecified), the 50% effective concentration (EC50) in [2] is 0.00794 nM.
On to `COc1ccccc1CCCNCC(O)c1ccc(O)c2c1OCC(=O)N2` (stereo unspecified), for which, in series [1], the Emax was found to be 109%. Moreover, the EC50 in series [2] is 0.00457 nM; in [3], 0.178 nM.
In the case of `O=C1COc2c(C(O)CNCCc3cccc(F)c3)ccc(O)c2N1` (stereo unspecified), in [1], the maximal effect (Emax) is 94.9%. Besides, the EC50 in series [2] was 0.024 nM; in series [3], 1.38 nM.
For `O=C1COc2c(C(O)CNCCC(c3ccccc3)c3ccccc3)ccc(O)c2N1` (stereo unspecified), in that order: 63.3%, 0.0468 nM and 2.24 nM.
The like results for `O=C1COc2c(C(O)CNCCCc3cccc(O)c3)ccc(O)c2N1` (stereo unspecified) were, in that order, 87.4%, 0.00437 nM and 0.138 nM.
Consider `COc1ccc(CCCNCC(O)c2ccc(O)c3c2OCC(=O)N3)cc1` (stereo unspecified), for which the Emax in [1] was 74.2%. The concentration for a half-maximal effect (EC50) in series [2] was 0.0038 nM; in [3], 0.513 nM.
For `O=C1COc2c(C(O)CNCCCc3ccc(F)cc3)ccc(O)c2N1` (stereo unspecified), in that order: 69.5%, 0.0038 nM and 0.245 nM.
As for `CC(C)NCC(O)c1ccc(O)c2c1OCC(=O)N2` (stereo unspecified), the EC50 in series [3] was 1.82 nM.
Still for that read-out and setting: the same measure for `Cc1ccccc1CCCNCC(O)c1ccc(O)c2c1OCC(=O)N2` (stereo unspecified): 0.324 nM.
For the compound `O=C1COc2c(C(O)CNCCc3ccccc3F)ccc(O)c2N1` (stereo unspecified), the maximal effect (Emax) in series [1] turned out to be 128%. For the same compound, the 50% effective concentration (EC50) in series [2] was 0.0115 nM; in [3], 4.07 nM.
For `O=C1COc2c(C(O)CNCCc3cccc(Cl)c3)ccc(O)c2N1` (stereo unspecified), in that order: 65.3%, 0.0269 nM and 3.72 nM.
In series [3], `O=C1COc2c(C(O)CNCCOc3ccccc3)ccc(O)c2N1` (stereo unspecified) showed an EC50 of 1.7 nM.
Usually half-life stands for how long it takes for the measured level to halve. Low readings indicate rapid decline, high ones slow decline. The Tmax is the time from dosing to the highest level. For orientation: Cmax means the peak of the concentration-time curve. As usually defined, the AUC(0-t) is exposure summed from dosing to a finite time, without extrapolation to infinity. Lower therefore signals less exposure. Usually AUC stands for concentration integrated over time. A lower AUC goes with less exposure. The MRT is a mean duration of stay, worked out from the concentration-time curve. Broadly, the MRT inf is a mean duration of stay, worked out from the concentration-time curve. A word on the clearance: it is the volume of plasma or blood freed of the substance per unit of time. Higher therefore signals a high capacity for elimination. As to `COc1ccccc1CCNCC(O)c1ccc(O)c2c1OCC(=O)N2.Cl` (stereo unspecified), the half-life in [4] was 5.21 h; in series [5] it was 3.77 h. Also, the figures for the time to peak (Tmax) in series [6] and in series [13] were 5.33 h and 4.98 min, respectively. Further, the figures for the Cmax in [7] and in [14] were 24 ng/mL and 416 ng/mL, respectively. The exposure AUC(0-t) at 24 h in series [8] worked out at 294 ng·h/mL; in series [15], 329 ng·h/mL. Also, the AUC in series [9] is 306 ng·h/mL; in series [16], 338 ng·h/mL. In addition, the mean residence time (MRT) amounted to 5.92 h in series [10] and 2.67 h in series [17]. Further, the figures for the MRT inf in series [11] and in [18] were 6.98 h and 3.43 h, respectively. For the same compound, the F in series [12] is 7.65%. For the same compound, the Vd in [19] turned out to be 44 L/kg. In addition, the clearance in series [20] is 102 mL/min/kg.
Compound `CCCCCCNCC(O)c1ccc(O)c2c1OCC(=O)N2` (stereo unspecified) gave a concentration for a half-maximal effect (EC50) in series [3] of 2.19 nM.
Take `Cc1ccc(CCCNCC(O)c2ccc(O)c3c2OCC(=O)N3)cc1` (stereo unspecified): the concentration giving a half-maximal response (EC50) in [2] was 0.00759 nM.
`O=C1COc2c(C(O)CNCCc3ccccc3Cl)ccc(O)c2N1` (stereo unspecified) had an EC50 in [3] of 5.37 nM.
As to `CCCCNCC(O)c1ccc(O)c2c1OCC(=O)N2` (stereo unspecified), the Emax in series [1] stood at 53.3%. For the same compound, the EC50 in series [2] is 0.0257 nM; in series [3], 16.6 nM.
For `O=C1COc2c(C(O)CNCCCc3ccc(O)cc3)ccc(O)c2N1` (stereo unspecified), in that order: 181%, 0.00575 nM and 0.12 nM.
For `O=C1COc2c(C(O)CNC3CC3)ccc(O)c2N1` (stereo unspecified), in that order: 123%, 0.0224 nM and 1.32 nM.
Compound `O=C1COc2c(C(O)CNCCc3ccccc3)ccc(O)c2N1` (stereo unspecified) gave an EC50 in series [3] of 1.91 nM.
In the case of `COc1ccc(CCNCC(O)c2ccc(O)c3c2OCC(=O)N3)cc1` (stereo unspecified), in [1], the Emax amounted to 59.6%. Further, the values for the EC50 in series [2] and in [3] were 0.0132 nM and 2.19 nM, respectively.
As to `O=C1COc2c(C(O)CNCCCc3cc(F)cc(F)c3)ccc(O)c2N1` (stereo unspecified), the half-maximal effective concentration (EC50) in series [3] was 0.105 nM.
Same read-out and setting: the same measure for `O=C1COc2c(C(O)CNCCCCc3ccccc3)ccc(O)c2N1` (stereo unspecified): 0.309 nM.
With `COc1cc(CCCNCC(O)c2ccc(O)c3c2OCC(=O)N3)cc(OC)c1OC` (stereo unspecified), the Emax in [1] came out at 142%. Besides, the half-maximal effective concentration (EC50) in series [2] was 0.0537 nM; in [3], 1.58 nM.
With `CC(C)(C)NCC(O)c1ccc(O)c2c1OCC(=O)N2` (stereo unspecified), in [3], the EC50 is 2.14 nM.
Regarding `O=C1COc2c(C(O)CNCCCc3ccccc3O)ccc(O)c2N1` (stereo unspecified), the EC50 in series [3] was 0.129 nM.
Consider `O=C1COc2c(C(O)CNCCc3ccc(F)cc3)ccc(O)c2N1` (stereo unspecified), for which the Emax in series [1] stood at 76.7%. The EC50 was 0.00537 nM in series [2] and 3.72 nM in [3].
In [3], `O=C1COc2c(C(O)CNCCCc3cccc(C(F)(F)F)c3)ccc(O)c2N1` (stereo unspecified) had a concentration for a half-maximal effect (EC50) of 0.513 nM.
Regarding `O=C1COc2c(C(O)CNCCc3ccc(Cl)cc3)ccc(O)c2N1` (stereo unspecified), in series [1], the Emax turned out to be 86.7%. In addition, the concentration giving a half-maximal response (EC50) in [2] is 1.32 nM; in series [3], 1000 nM.
For `Cc1ccccc1CCNCC(O)c1ccc(O)c2c1OCC(=O)N2` (stereo unspecified), in that order: 135%, 0.0282 nM and 0.912 nM.
For `Cc1cccc(CCCNCC(O)c2ccc(O)c3c2OCC(=O)N3)c1` (stereo unspecified), the concentration for a half-maximal effect (EC50) in series [3] is 0.245 nM.
Regarding `CC(C)NCC(O)c1ccc(O)c(O)c1` (stereo unspecified) [ISOPROTERENOL], in series [1], the Emax stood at 141%.
In series [3], `COc1ccc(CC(C)(C)NC[C@H](O)c2cc(O)cc3c2OCC(=O)N3)cc1` [OLODATEROL] showed an EC50 of 33.9 nM.
